# Experimental data as given in the supplement of paper PMC11061612.
# Columns and labels:
# [1] = compound: N#Cc1cnc(Nc2cc(NC[C@H]3CNCCO3)c(C(F)(F)F)cn2)cn1 [SRA737]; details: max 10 µM
# Summary of the method: (§1)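 Viability was measured with CellTiter-Glo 2.0 luminescence after 72 hours of dosing at a final DMSO of typically 0.2%, and scaled between blank-well and DMSO-well means. Beforehand, cancer cell lines sat 24 hours at 37°C and 5% CO2 in 1536-well plates in 7.5 μl DMEM/F12 or RPMI with 10% FBS. A non-linear mixed effects model fitted two-parameter logistic curves to the dose responses. The single-agent IC50 comes from these fits.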
# [2] = compound: C[C@@H]1COCCN1C2=NC(=NC(=C2)C3(CC3)[S@](=N)(=O)C)C4=C5C=CNC5=NC=C4 [AZD6738]; details: max 10 µM
# Summary of the method: as §1
# [3] = compound: C1CC(C1)(C(=O)[O-])C(=O)[O-].N.N.[Pt+2] [Carboplatin]; details: max 10 µM
# Summary of the method: as §1
# [4] = compound: CC(=O)Nc1cccc(-n2c(=O)n(C3CC3)c(=O)c3c(Nc4ccc(I)cc4F)n(C)c(=O)c(C)c32)c1 [Trametinib]; details: max 1 µM
# Summary of the method: as §1
# [5] = compound: C[C@@H](Nc1cc(F)cc(F)c1)c1cc(C(=O)N(C)C)cc2c(=O)cc(N3CCOCC3)oc12 [AZD8186]; details: max 10 µM
# Summary of the method: as §1
# [6] = compound: CS(=O)(=O)CCNCc1ccc(-c2ccc3ncnc(Nc4ccc(OCc5cccc(F)c5)c(Cl)c4)c3c2)o1 [Lapatinib]; details: max 10 µM
# Summary of the method: as §1
# [7] = compound: CCN(CCO)CCCOc1ccc2c(Nc3cc(CC(=O)Nc4cccc(F)c4)[nH]n3)ncnc2c1 [AZD2811]; details: max 1 µM
# Summary of the method: as §1
# [8] = compound: Cn1cnc2c(F)c(Nc3ccc(Br)cc3Cl)c(C(=O)NOCCO)cc21 [Selumetinib]; details: max 10 µM
# Summary of the method: as §1
# [9] = compound: C[C@@H](Oc1cc(-c2cnn(C3CCNCC3)c2)cnc1N)c1c(Cl)ccc(F)c1Cl [Crizotinib]; details: max 10 µM
# Summary of the method: as §1
# [10] = compound: CN(C)CCCOc1ccc(-c2ccc3ncc4c(c3c2)n(C2CCOCC2)c(=O)n4C)cn1 [AZD0156]; details: max 3 µM
# Summary of the method: as §1
# [11] = compound: C[C@@H](c1ccc2nccn2c1)n1nnc2ncc(-c3cnn(C)c3)nc21 [Savolitinib]; details: max 1 µM
# Summary of the method: as §1
# [12] = compound: C1CN(CCC1(C(=O)N[C@@H](CCO)C2=CC=C(C=C2)Cl)N)C3=NC=NC4=C3C=CN4 [AZD5363]; details: max 10 µM
# Summary of the method: as §1
# [13] = compound: O=c1[nH]cc(F)c(=O)[nH]1 [5-Fluorouracil]; details: max 20 µM
# Summary of the method: as §1
# [14] = compound: CC1=C(C(=CC=C1)Cl)NC(=O)C2=CN=C(S2)NC3=CC(=NC(=N3)C)N4CCN(CC4)CCO [Dasatinib]; details: max 2 µM
# Summary of the method: as §1
# [15] = compound: CCc1c2c(nc3ccc(O)cc13)-c1cc3c(c(=O)n1C2)COC(=O)[C@]3(O)CC [SN-38]; details: max 0.3 µM
# Summary of the method: as §1
# [16] = compound: CC(=O)O[C@H]1C(=O)[C@@]2(C)[C@H]([C@H](OC(=O)c3ccccc3)[C@]3(O)C[C@H](OC(=O)[C@H](O)[C@@H](NC(=O)c4ccccc4)c4ccccc4)C(C)=C1C3(C)C)[C@]1(OC(C)=O)CO[C@@H]1C[C@@H]2O [Paclitaxel]; details: max 3 µM
# Summary of the method: as §1
# [17] = compound: Cc1nc(-c2cn3c(n2)-c2ccc(-c4cnn(C(C)(C)C(N)=O)c4)cc2OCC3)n(C(C)C)n1 [Taselisib]; details: max 10 µM
# Summary of the method: as §1
# [18] = compound: O=C(c1cc(Cc2n[nH]c(=O)c3ccccc23)ccc1F)N1CCN(C(=O)C2CC2)CC1 [Olaparib]; details: max 10 µM
# Summary of the method: as §1
# [19] = compound: COc1cc([C@@H]2c3cc4c(cc3[C@@H](O[C@@H]3O[C@@H]5CO[C@@H](C)O[C@H]5[C@H](O)[C@H]3O)[C@H]3COC(=O)[C@H]23)OCO4)cc(OC)c1O [Etoposide]; details: max 10 µM
# Summary of the method: as §1
# [20] = compound: C=CCn1c(=O)c2cnc(Nc3ccc(N4CCN(C)CC4)cc3)nc2n1-c1cccc(C(C)(C)O)n1 [AZD1775]; details: max 3 µM
# Summary of the method: as §1
# [21] = compound: COc1cccc2c1C(=O)c1c(O)c3c(c(O)c1C2=O)C[C@@](O)(C(=O)CO)C[C@@H]3O[C@H]1C[C@H](N)[C@H](O)[C@H](C)O1 [Doxorubicin]; details: max 1 µM
# Summary of the method: as §1
# [22] = compound: CN(CC[C@H](CSC1=CC=CC=C1)NC2=C(C=C(C=C2)S(=O)(=O)NC(=O)C3=CC=C(C=C3)N4CCC(CC4)[C@H](C5=CC=CC=C5C6=CC=C(C=C6)Cl)O)S(=O)(=O)C(F)(F)F)CCO [AZD4320]; details: max 1 µM
# Summary of the method: as §1
# [23] = compound: NC1(c2ccc(-c3nc4ccn5c(=O)[nH]nc5c4cc3-c3ccccc3)cc2)CCC1 [MK-2206]; details: max 10 µM
# Summary of the method: as §1
# [24] = compound: Cc1cc2ncnn2cc1Nc1ncc2c(n1)n(C1CCOCC1)c(=O)n2C [AZD7648]; details: max 10 µM
# Summary of the method: as §1
# [25] = compound: COc1cc2ncnc(Nc3ccc(F)c(Cl)c3)c2cc1OCCCN1CCOCC1 [Gefitinib]; details: max 10 µM
# Summary of the method: as §1
# [26] = compound: Cc1c2c(nn1C)CSCc1cc(n(C)n1)CSc1cc(c3ccccc3c1)OCCCc1c(C(=O)O)n(C)c3c-2c(Cl)ccc13 [AZD5991]; details: max 1 µM
# Summary of the method: as §1
# [27] = compound: COc1cccc(OCCCN)c1-c1cc(Nc2cnc(C#N)cn2)n[nH]1 [Prexasertib]; details: max 1 µM
# Summary of the method: as §1
# [28] = compound: O=C(Nc1ccc2[nH]nc(-c3ccncc3)c2c1)[C@@H]1CCN(CC(=O)N2CCN(c3ccc(-c4ncccn4)cc3)CC2)C1; details: max 5 µM
# Summary of the method: as §1
# [29] = compound: Nc1ccn([C@@H]2O[C@H](CO)[C@@H](O)C2(F)F)c(=O)n1 [Gemcitabine]; details: max 0.3 µM
# Summary of the method: as §1
# [30] = compound: CC1=CN2[C@@H](C1)C=NC3=CC(=C(C=C3C2=O)OC)OCCCCCOC4=C(C=C5C(=C4)N=C[C@@H]6CC(=CN6C5=O)C)OC [SG3199]; details: max 0.001 µM
# Summary of the method: as §1
# [31] = compound: COc1cc(Nc2ncc3c(n2)-c2ccc(Cl)cc2C(c2c(F)cccc2OC)=NC3)ccc1C(=O)O [Alisertib]; details: max 10 µM
# Summary of the method: as §1
# [32] = compound: COc1nnc2ccc(N3CCC(c4ccc(OCCN5CCN(C)C(=O)[C@H]5C)cc4)CC3)nn12 [AZD5153]; details: max 1 µM
# Summary of the method: as §1
# [33] = compound: CC(=O)c1c(C)c2cnc(Nc3ccc(N4CCNCC4)cn3)nc2n(C2CCCC2)c1=O [Palbociclib]; details: max 10 µM
# Summary of the method: as §1
# [34] = compound: CC(C)n1c(=O)n(C)c2cnc3cc(F)c(-c4ccc(OCCCN5CCCCC5)nc4)cc3c21 [AZD1390]; details: max 0.3 µM
# Summary of the method: as §1
# [35] = compound: CC1(C)CCC(CN2CCN(c3ccc(C(=O)NS(=O)(=O)c4ccc(NCC5CCOCC5)c([N+](=O)[O-])c4)c(Oc4cnc5[nH]ccc5c4)c3)CC2)=C(c2ccc(Cl)cc2)C1 [Venetoclax]; details: max 1 µM
# Summary of the method: as §1
Cell Line,"IC50, cell viability 72 h [1]","IC50, cell viability 72 h [2]","IC50, cell viability 72 h [3]","IC50, cell viability 72 h [4]","IC50, cell viability 72 h [5]","IC50, cell viability 72 h [6]","IC50, cell viability 72 h [7]","IC50, cell viability 72 h [8]","IC50, cell viability 72 h [9]","IC50, cell viability 72 h [10]","IC50, cell viability 72 h [11]","IC50, cell viability 72 h [12]","IC50, cell viability 72 h [13]","IC50, cell viability 72 h [14]","IC50, cell viability 72 h [15]","IC50, cell viability 72 h [16]","IC50, cell viability 72 h [17]","IC50, cell viability 72 h [18]","IC50, cell viability 72 h [19]","IC50, cell viability 72 h [20]","IC50, cell viability 72 h [21]","IC50, cell viability 72 h [22]","IC50, cell viability 72 h [23]","IC50, cell viability 72 h [24]","IC50, cell viability 72 h [25]","IC50, cell viability 72 h [26]","IC50, cell viability 72 h [27]","IC50, cell viability 72 h [28]","IC50, cell viability 72 h [29]","IC50, cell viability 72 h [30]","IC50, cell viability 72 h [31]","IC50, cell viability 72 h [32]","IC50, cell viability 72 h [33]","IC50, cell viability 72 h [34]","IC50, cell viability 72 h [35]"
EW-3 (Ewing's Sarcoma),> 10 µM,2.03 µM,> 10 µM,> 1 µM,> 10 µM,> 10 µM,> 1 µM,> 10 µM,9.57 µM,> 3 µM,> 1 µM,> 10 µM,> 20 µM,> 2 µM,0.00207 µM,0.0175 µM,> 10 µM,> 10 µM,1.1 µM,2.3 µM,0.0867 µM,0.0276 µM,> 10 µM,> 10 µM,> 10 µM,0.47 µM,0.183 µM,> 5 µM,0.00811 µM,> 0.001 µM,8.57 µM,0.496 µM,> 10 µM,> 0.3 µM,0.401 µM
GI-1 (Glioblastoma),3.87 µM,2.1 µM,> 10 µM,> 1 µM,9.59 µM,> 10 µM,> 1 µM,> 10 µM,5.43 µM,> 3 µM,> 1 µM,7.33 µM,> 20 µM,> 2 µM,0.00955 µM,0.0102 µM,3.04 µM,> 10 µM,4.03 µM,0.755 µM,0.67 µM,> 1 µM,> 10 µM,> 10 µM,> 10 µM,0.737 µM,0.0178 µM,> 5 µM,0.0533 µM,> 0.001 µM,> 10 µM,0.303 µM,> 10 µM,> 0.3 µM,> 1 µM
H-EMC-SS (Chondrosarcoma),> 10 µM,> 10 µM,> 10 µM,0.293 µM,> 10 µM,> 10 µM,> 1 µM,> 10 µM,> 10 µM,> 3 µM,> 1 µM,> 10 µM,> 20 µM,> 2 µM,0.153 µM,> 3 µM,3.36 µM,> 10 µM,> 10 µM,> 3 µM,0.428 µM,> 1 µM,> 10 µM,> 10 µM,> 10 µM,> 1 µM,> 1 µM,> 5 µM,> 0.3 µM,> 0.001 µM,8.38 µM,> 1 µM,> 10 µM,> 0.3 µM,> 1 µM
HSC-2 (Oral Cavity Carcinoma),> 10 µM,8.5 µM,> 10 µM,> 1 µM,> 10 µM,4.01 µM,> 1 µM,> 10 µM,> 10 µM,> 3 µM,> 1 µM,> 10 µM,> 20 µM,0.176 µM,0.00535 µM,0.00331 µM,0.171 µM,> 10 µM,4.42 µM,2.13 µM,0.367 µM,> 1 µM,> 10 µM,> 10 µM,3.96 µM,0.439 µM,0.124 µM,> 5 µM,0.0182 µM,> 0.001 µM,2.4 µM,0.238 µM,> 10 µM,> 0.3 µM,> 1 µM
JHH-7 (Hepatocellular Carcinoma),> 10 µM,> 10 µM,> 10 µM,> 1 µM,> 10 µM,> 10 µM,> 1 µM,> 10 µM,> 10 µM,> 3 µM,> 1 µM,> 10 µM,> 20 µM,> 2 µM,> 0.3 µM,0.66 µM,> 10 µM,> 10 µM,> 10 µM,2.61 µM,> 1 µM,> 1 µM,> 10 µM,> 10 µM,> 10 µM,> 1 µM,> 1 µM,> 5 µM,> 0.3 µM,> 0.001 µM,> 10 µM,> 1 µM,> 10 µM,> 0.3 µM,> 1 µM
